Test results: BindingDB's records for doi:10.1016/j.bmc.2015.05.058 (Washington University, 2015)

Each molecule was assayed against T1, Vesicular acetylcholine transporter (Homo sapiens, UniProt Q16572) (assay: Displacement of [3H]-vesamicol from human VAChT after 24 hrs by liquid scintillation spectrometry analysis).
T1 sequence (Q16572 whole entry): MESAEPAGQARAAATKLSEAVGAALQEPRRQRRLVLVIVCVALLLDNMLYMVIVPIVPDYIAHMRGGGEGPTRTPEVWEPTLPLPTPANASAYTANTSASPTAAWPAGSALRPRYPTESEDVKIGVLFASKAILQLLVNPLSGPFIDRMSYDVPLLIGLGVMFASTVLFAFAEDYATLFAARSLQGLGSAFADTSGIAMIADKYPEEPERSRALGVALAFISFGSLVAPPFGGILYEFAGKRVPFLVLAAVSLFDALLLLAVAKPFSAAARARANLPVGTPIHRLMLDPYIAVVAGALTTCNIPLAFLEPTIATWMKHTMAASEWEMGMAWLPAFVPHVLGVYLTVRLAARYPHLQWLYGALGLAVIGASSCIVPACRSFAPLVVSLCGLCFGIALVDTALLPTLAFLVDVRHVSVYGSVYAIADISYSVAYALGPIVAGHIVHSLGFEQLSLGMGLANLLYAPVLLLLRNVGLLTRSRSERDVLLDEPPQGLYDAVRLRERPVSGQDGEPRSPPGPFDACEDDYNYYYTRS

Ki	Structure (SMILES)
93 nM	O=C(c1ccc(F)cc1)C1CCN([C@@H]2Cc3cccc(OCCF)c3C[C@H]2O)CC1
1.6 nM	O=C(c1ccc(F)cc1)C1CCN([C@@H]2Cc3c(cccc3OCCF)C[C@H]2O)CC1

Structure (SMILES)	Ki
O=C(c1ccc(F)cc1)C1CCN(C2Cc3c(cccc3OCCF)CC2O)CC1 (stereo not drawn)	13 nM
